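Protocol summary: plate cells (96-well), add compound at 5 concentrations, incubate 48 h, interpolate endpoints linearly. Definition used: TGI = concentration required for complete inhibition of growth.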
Key:
Experiment in all cases: NCI anticancer screen, dose series, 48 h
786-0 renal = system: 786-0 renal
A498 renal = system: A498 renal
A549 NSCLC = system: A549 NSCLC
ACHN renal = system: ACHN renal
BT-549 breast = system: BT-549 breast
CAKI-1 renal = system: CAKI-1 renal
CCRF-CEM leukemia = system: CCRF-CEM leukemia
COLO 205 colon = system: COLO 205 colon
DU-145 prostate = system: DU-145 prostate
EKVX NSCLC = system: EKVX NSCLC
HCC-2998 colon = system: HCC-2998 colon
HCT-116 colon = system: HCT-116 colon
HCT-15 colon = system: HCT-15 colon
HL-60(TB) leukemia = system: HL-60(TB) leukemia
HOP-62 NSCLC = system: HOP-62 NSCLC
HOP-92 NSCLC = system: HOP-92 NSCLC
HS 578T breast = system: HS 578T breast
HT29 colon = system: HT29 colon
IGROV1 ovarian = system: IGROV1 ovarian
K-562 leukemia = system: K-562 leukemia
KM12 colon = system: KM12 colon
LOX IMVI melanoma = system: LOX IMVI melanoma
M14 melanoma = system: M14 melanoma
MALME-3M melanoma = system: MALME-3M melanoma
MCF7 breast = system: MCF7 breast
MDA-MB-231 breast = system: MDA-MB-231 breast
MDA-MB-435 = system: MDA-MB-435
MDA-N = system: MDA-N
MOLT-4 leukemia = system: MOLT-4 leukemia
NCI-H226 lung = system: NCI-H226 lung
NCI-H23 lung = system: NCI-H23 lung
NCI-H460 lung = system: NCI-H460 lung
NCI-H522 lung = system: NCI-H522 lung
NCI/ADR-RES ovarian = system: NCI/ADR-RES ovarian
OVCAR-3 ovarian = system: OVCAR-3 ovarian
OVCAR-4 ovarian = system: OVCAR-4 ovarian
OVCAR-5 ovarian = system: OVCAR-5 ovarian
OVCAR-8 ovarian = system: OVCAR-8 ovarian
PC-3 prostate = system: PC-3 prostate
RPMI-8226 leukemia = system: RPMI-8226 leukemia
RXF 393 renal = system: RXF 393 renal
SF-268 CNS = system: SF-268 CNS
SF-295 CNS = system: SF-295 CNS
SF-539 CNS = system: SF-539 CNS
SK-MEL-2 melanoma = system: SK-MEL-2 melanoma
SK-MEL-28 melanoma = system: SK-MEL-28 melanoma
SK-OV-3 ovarian = system: SK-OV-3 ovarian
SN12C renal = system: SN12C renal
SNB-19 CNS = system: SNB-19 CNS
SNB-75 CNS = system: SNB-75 CNS
SR leukemia = system: SR leukemia
SW-620 colon = system: SW-620 colon
T-47D breast = system: T-47D breast
TK-10 renal = system: TK-10 renal
U251 CNS = system: U251 CNS
UACC-257 melanoma = system: UACC-257 melanoma
UACC-62 melanoma = system: UACC-62 melanoma
UO-31 renal = system: UO-31 renal
SK-MEL-5 melanoma = system: SK-MEL-5 melanoma

## O=C(CCCCCCC(=O)Nc1cccnc1)NO
786-0 renal
  TGI: > 100 µM
A498 renal
  TGI: > 100 µM
A549 NSCLC
  TGI: > 100 µM
ACHN renal
  TGI: > 92.2 µM
BT-549 breast
  TGI: > 100 µM
CAKI-1 renal
  TGI: > 100 µM
CCRF-CEM leukemia
  TGI: > 100 µM
COLO 205 colon
  TGI: > 20.5 µM
DU-145 prostate
  TGI: > 31.5 µM
EKVX NSCLC
  TGI: > 100 µM
HCC-2998 colon
  TGI: 54.5 µM
HCT-116 colon
  TGI: > 100 µM
HCT-15 colon
  TGI: > 100 µM
HL-60(TB) leukemia
  TGI: 31.6 µM
HOP-62 NSCLC
  TGI: > 100 µM
HOP-92 NSCLC
  TGI: > 100 µM
HS 578T breast
  TGI: > 95.3 µM
HT29 colon
  TGI: > 37.4 µM
IGROV1 ovarian
  TGI: > 68.9 µM
K-562 leukemia
  TGI: > 100 µM
KM12 colon
  TGI: > 44.6 µM
LOX IMVI melanoma
  TGI: 38.9 µM
M14 melanoma
  TGI: > 56 µM
MALME-3M melanoma
  TGI: > 100 µM
MCF7 breast
  TGI: > 100 µM
MDA-MB-231 breast
  TGI: > 100 µM
MDA-MB-435
  TGI: > 42.6 µM
MDA-N
  TGI: > 25.6 µM
MOLT-4 leukemia
  TGI: > 100 µM
NCI-H226 lung
  TGI: > 100 µM
NCI-H23 lung
  TGI: > 100 µM
NCI-H460 lung
  TGI: > 100 µM
NCI-H522 lung
  TGI: 17.3 µM
NCI/ADR-RES ovarian
  TGI: 10.1 µM
OVCAR-3 ovarian
  TGI: 18.7 µM
OVCAR-4 ovarian
  TGI: > 100 µM
OVCAR-5 ovarian
  TGI: > 32.1 µM
OVCAR-8 ovarian
  TGI: > 57.5 µM
PC-3 prostate
  TGI: > 100 µM
RPMI-8226 leukemia
  TGI: > 29.4 µM
RXF 393 renal
  TGI: 31 µM
SF-268 CNS
  TGI: > 61 µM
SF-295 CNS
  TGI: > 100 µM
SF-539 CNS
  TGI: > 100 µM
SK-MEL-2 melanoma
  TGI: 17.9 µM
SK-MEL-28 melanoma
  TGI: > 80.3 µM
SK-OV-3 ovarian
  TGI: > 71.8 µM
SN12C renal
  TGI: > 38.8 µM
SNB-19 CNS
  TGI: > 100 µM
SNB-75 CNS
  TGI: > 100 µM
SR leukemia
  TGI: > 100 µM
SW-620 colon
  TGI: > 100 µM
T-47D breast
  TGI: 8.12 µM
TK-10 renal
  TGI: > 100 µM
U251 CNS
  TGI: > 54.8 µM
UACC-257 melanoma
  TGI: 87.7 µM
UACC-62 melanoma
  TGI: 18.5 µM
UO-31 renal
  TGI: > 100 µM

## Nc1nc(Cl)cc(NCCC2(CO)CCC2)n1
786-0 renal
  TGI: > 100 µM
A498 renal
  TGI: > 100 µM
A549 NSCLC
  TGI: > 100 µM
ACHN renal
  TGI: > 100 µM
BT-549 breast
  TGI: > 100 µM
CAKI-1 renal
  TGI: > 100 µM
CCRF-CEM leukemia
  TGI: > 100 µM
COLO 205 colon
  TGI: > 100 µM
DU-145 prostate
  TGI: > 100 µM
EKVX NSCLC
  TGI: > 100 µM
HCC-2998 colon
  TGI: > 100 µM
HCT-116 colon
  TGI: > 100 µM
HCT-15 colon
  TGI: > 100 µM
HL-60(TB) leukemia
  TGI: > 100 µM
HOP-62 NSCLC
  TGI: > 100 µM
HOP-92 NSCLC
  TGI: > 100 µM
HS 578T breast
  TGI: > 100 µM
HT29 colon
  TGI: > 100 µM
IGROV1 ovarian
  TGI: > 100 µM
K-562 leukemia
  TGI: > 100 µM
KM12 colon
  TGI: > 100 µM
LOX IMVI melanoma
  TGI: > 100 µM
M14 melanoma
  TGI: > 100 µM
MALME-3M melanoma
  TGI: > 100 µM
MCF7 breast
  TGI: > 100 µM
MDA-MB-231 breast
  TGI: > 100 µM
MDA-MB-435
  TGI: > 100 µM
MDA-N
  TGI: > 100 µM
MOLT-4 leukemia
  TGI: > 100 µM
NCI-H226 lung
  TGI: > 100 µM
NCI-H23 lung
  TGI: > 100 µM
NCI-H460 lung
  TGI: > 100 µM
NCI-H522 lung
  TGI: > 100 µM
NCI/ADR-RES ovarian
  TGI: > 100 µM
OVCAR-3 ovarian
  TGI: > 100 µM
OVCAR-4 ovarian
  TGI: > 100 µM
OVCAR-5 ovarian
  TGI: > 100 µM
OVCAR-8 ovarian
  TGI: > 100 µM
PC-3 prostate
  TGI: > 100 µM
RPMI-8226 leukemia
  TGI: > 100 µM
RXF 393 renal
  TGI: > 100 µM
SF-268 CNS
  TGI: > 100 µM
SF-295 CNS
  TGI: > 100 µM
SF-539 CNS
  TGI: > 100 µM
SK-MEL-2 melanoma
  TGI: > 100 µM
SK-MEL-28 melanoma
  TGI: > 100 µM
SK-MEL-5 melanoma
  TGI: > 100 µM
SK-OV-3 ovarian
  TGI: > 100 µM
SN12C renal
  TGI: > 100 µM
SNB-19 CNS
  TGI: > 100 µM
SNB-75 CNS
  TGI: > 100 µM
SR leukemia
  TGI: > 100 µM
SW-620 colon
  TGI: > 100 µM
T-47D breast
  TGI: > 100 µM
TK-10 renal
  TGI: > 100 µM
U251 CNS
  TGI: > 100 µM
UACC-257 melanoma
  TGI: > 100 µM
UACC-62 melanoma
  TGI: > 100 µM
UO-31 renal
  TGI: > 100 µM
